Patent US6783949B1, “Processes for determining whether a test substance contains lipases or lipase inhibitors” (Aventis Pharma Deutschland GmbH, priority 1999, dated 2004)

Target: T1, HSL (Rattus norvegicus, UniProt P15304)
T1 construct: The partially purified HSL can be stored at −70° C. for 4 to 6 weeks; from tissue; host or cells: rat epididymal fat cells (male Wistar rats)
T1 sequence (P15304 1-768 isoform P15304-2): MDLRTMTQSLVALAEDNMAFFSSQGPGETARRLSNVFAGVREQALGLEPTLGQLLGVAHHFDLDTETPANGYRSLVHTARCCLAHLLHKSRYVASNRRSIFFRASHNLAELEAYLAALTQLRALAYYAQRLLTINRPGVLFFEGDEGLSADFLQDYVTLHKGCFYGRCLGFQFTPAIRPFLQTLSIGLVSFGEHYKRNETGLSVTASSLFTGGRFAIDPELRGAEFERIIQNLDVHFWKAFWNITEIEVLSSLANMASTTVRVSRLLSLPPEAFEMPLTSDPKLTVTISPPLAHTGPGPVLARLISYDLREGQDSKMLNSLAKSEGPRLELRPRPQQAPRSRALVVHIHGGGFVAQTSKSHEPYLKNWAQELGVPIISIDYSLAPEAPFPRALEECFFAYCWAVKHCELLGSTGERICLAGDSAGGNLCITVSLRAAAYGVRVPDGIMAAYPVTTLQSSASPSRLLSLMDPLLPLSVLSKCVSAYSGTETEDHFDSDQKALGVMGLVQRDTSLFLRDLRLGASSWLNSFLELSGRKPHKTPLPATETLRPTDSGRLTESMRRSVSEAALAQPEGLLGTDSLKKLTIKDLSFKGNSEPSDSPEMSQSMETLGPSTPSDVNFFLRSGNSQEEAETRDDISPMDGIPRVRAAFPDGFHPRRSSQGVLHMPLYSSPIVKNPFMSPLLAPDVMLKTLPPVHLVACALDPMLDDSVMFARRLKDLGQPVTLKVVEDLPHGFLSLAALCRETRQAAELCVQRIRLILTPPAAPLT
Assay: Indirect NAG assay (extinction increase at 481 nm)
Type: biochemical
Details: 60 min
Protocol: A typical reaction is carried out at 30° C. for 60 min, for example in 1.5 ml Eppendorf vessels or 96-hole plates. […] 180 μl of the substrate solution (20 μg/ml of phosphatidylcholine, 10 μg/ml of phosphatidylinositol, 50 μg/ml of NAG in assay buffer) are added. After a preincubation for 15 min at 30° C., 20 μl of HSL in assay buffer are pipetted in and the extinction is immediately measured (see above) at 481 nm in a cuvette photometer (0.5 ml cuvette) or microtiter plate reader. After a certain incubation time, which is variable and depends on the chosen enzyme concentration and can be between 2 and 240 minutes, in this case incubation at 30° C. for 60 min, the extinction is measured again. The increase in the extinction in the yellow region, in this case at 481 nm, is a measure of the enzyme activity.
Isolated rat fat cells are obtained from epididymal fatty tissue from untreated male rats (Wistar, 220-250 g) by collagenase treatment according to published processes. The fat cells from 10 rats are washed three times by flotation with 50 ml each of homogenization buffer ([…], pH 7.4, 0.25 M sucrose, 1 mM ethylenediamine-N,N,N′,N′-tetraacetic acid (EDTA), 1 mM dithiothreitol (DTT), 10 μg/ml of leupeptin, 10 μg/ml of antipain, 20 μg/ml of pepstatin) and finally taken up in 10 ml of homogenization buffer. The fat cells are homogenized in a Teflon-in-glass homogenizer (Braun-Melsungen) by 10 strokes at 1500 rpm and 15° C. The homogenizate is centrifuged (Sorvall SM24 tubes, 5000 rpm, 10 min, 4° C.). The […] between the overlying fatty layer and the pellet is removed and the centrifugation is repeated. The […] resulting from this is centrifuged again (Sorvall SM24 tubes, 20,000 rpm, 45 min, 4° C.). […] After incubation for 60 min at 4° C. (shake at intervals of 15 min), the batch is centrifuged (Sorvall SM24 tubes, 3000 rpm, 10 min, 4° C.). The supernatant is brought to pH 5.2 by addition of glacial acetic acid and incubated at 4° C. for 30 min. […] The suspension is dialyzed overnight at 4° C. against 25 mM TRIS/HCl, pH 7.4, 50% glycerol, 1 mM DTT, and 10 μg/ml of leupeptin, pepstatin, and antipain and then applied to a hydroxylapatite column (0.1 g per 1 ml of suspension, equilibrated with 10 mM potassium phosphate, pH 7.0, 30% glycerol, 1 mM DTT). The column is washed with four volumes of equilibration buffer at a flow rate of 20 to 30 ml/h. The HSL is eluted with a volume of equilibration buffer which contains 0.5 M potassium phosphate, then dialyzed (see above) and concentrated 5 to 10 times by ultrafiltration (Amicon Diaflo PM 10 filter) at 4° C. The partially purified HSL can be stored at −70° C. for 4 to 6 weeks.
6 mg of phosphatidylcholine and 6 mg of phosphatidylinositol are dissolved in 1 ml of chloroform each. 10 mg of NAG are dissolved in 1 ml of chloroform. […] The chloroform (225 μl total volume) is completely removed by overblowing with a stream of N2. The dried substrate can be stored at 4° C. for up to three days. For the preparation of the phospholipid vesicles/micelles having intercalated NAG (on the test day), the dried substrate is taken up in 20 ml of assay buffer (25 mM TRIS/HCl, pH 7.4; 150 mM NaCl) and two ultrasonic treatments with an ultrasonic probe (Branson Sonifier type 11, standard microtip): 1st treatment setting 2, 2×1 min, in between in each case 1 min on ice; 2nd treatment setting 4, 2×1 min, in between in each case 1 min on ice. […] Before use as a substrate (within the next 2 h), the solution is additionally incubated on ice for 15 min.
The assay is carried out at 30° C. for 60 min in 1.5 ml Eppendorf vessels or 96-hole plates.

For `O=C(CCCCCCCCCCCNc1ccc([N+](=O)[O-])c2nonc12)OCC(O)CO` (centres unmarked) [Compound (3)], the “Increase in the absorption at 481 nm” value (NAG 0.075 mg/ml, HSL 40 μg) was 15502 ± 1077 arb. units, the “Increase in the absorption at 481 nm” value (NAG 0.1 mg/ml, HSL 5 μg) was 1521 ± 119 arb. units and the “Increase in the absorption at 481 nm” value (NAG 0.1 mg/ml, HSL 20 μg) was 6124 ± 577 arb. units. For the same compound, the “Increase in the absorption at 481 nm” value (NAG 0.1 mg/ml, HSL 40 μg) was 19223 ± 1599 arb. units, the “Increase in the absorption at 481 nm” value (NAG 0.15 mg/ml, HSL 5 μg) was 1983 ± 155 arb. units and the “Increase in the absorption at 481 nm” value (NAG 0.15 mg/ml, HSL 20 μg) was 7544 ± 603 arb. units. The “Increase in the absorption at 481 nm” value (NAG 0.15 mg/ml, HSL 40 μg) was 26730 ± 2069 arb. units, the “Increase in the absorption at 481 nm” value (NAG 0.2 mg/ml, HSL 5 μg) was 2242 ± 186 arb. units and the “Increase in the absorption at 481 nm” value (NAG 0.2 mg/ml, HSL 20 μg) was 8898 ± 961 arb. units. For the same compound, the “Increase in the absorption at 481 nm” value (NAG 0.2 mg/ml, HSL 40 μg) was 31641 ± 2304 arb. units, the “Increase in the absorption at 481 nm” value (NAG 0.3 mg/ml, HSL 5 μg) was 2489 ± 213 arb. units and the “Increase in the absorption at 481 nm” value (NAG 0.3 mg/ml, HSL 20 μg) was 9734 ± 825 arb. units. The “Increase in the absorption at 481 nm” value (NAG 0.3 mg/ml, HSL 40 μg) was 35953 ± 3355 arb. units, the “Increase in the absorption at 481 nm” value (PI/PC 0 mg/ml, PI:PC 1:1, HSL 20 μg, NAG 0.05 mg/ml) was 134 ± 23 arb. units and the “Increase in the absorption at 481 nm” value (PI/PC 0 mg/ml, PI:PC 1:3, HSL 20 μg, NAG 0.05 mg/ml) was 89 ± 12 arb. units. The “Increase in the absorption at 481 nm” value (PI/PC 0 mg/ml, PI:PC 3:1, HSL 20 μg, NAG 0.05 mg/ml) was 173 ± 42 arb. units, the “Increase in the absorption at 481 nm” value (PI/PC 0.009 mg/ml, PI:PC 1:1, HSL 20 μg, NAG 0.05 mg/ml) was 548 ± 76 arb. units and the “Increase in the absorption at 481 nm” value (PI/PC 0.009 mg/ml, PI:PC 1:3, HSL 20 μg, NAG 0.05 mg/ml) was 289 ± 77 arb. units. For the same compound, the “Increase in the absorption at 481 nm” value (PI/PC 0.009 mg/ml, PI:PC 3:1, HSL 20 μg, NAG 0.05 mg/ml) was 1437 ± 132 arb. units, the “Increase in the absorption at 481 nm” value (PI/PC 0.018 mg/ml, PI:PC 1:1, HSL 20 μg, NAG 0.05 mg/ml) was 1430 ± 188 arb. units and the “Increase in the absorption at 481 nm” value (PI/PC 0.018 mg/ml, PI:PC 1:3, HSL 20 μg, NAG 0.05 mg/ml) was 692 ± 94 arb. units. For the same compound, the “Increase in the absorption at 481 nm” value (PI/PC 0.018 mg/ml, PI:PC 3:1, HSL 20 μg, NAG 0.05 mg/ml) was 2610 ± 306 arb. units, the “Increase in the absorption at 481 nm” value (PI/PC 0.075 mg/ml, PI:PC 1:1, HSL 20 μg, NAG 0.05 mg/ml) was 1138 ± 125 arb. units and the “Increase in the absorption at 481 nm” value (PI/PC 0.075 mg/ml, PI:PC 1:3, HSL 20 μg, NAG 0.05 mg/ml) was 1679 ± 143 arb. units. For the same compound, the “Increase in the absorption at 481 nm” value (PI/PC 0.075 mg/ml, PI:PC 3:1, HSL 20 μg, NAG 0.05 mg/ml) was 3365 ± 402 arb. units, the “Increase in the absorption at 481 nm” value (PI/PC 0.15 mg/ml, PI:PC 1:1, HSL 20 μg, NAG 0.05 mg/ml) was 745 ± 97 arb. units and the “Increase in the absorption at 481 nm” value (PI/PC 0.15 mg/ml, PI:PC 1:3, HSL 20 μg, NAG 0.05 mg/ml) was 912 ± 103 arb. units. The “Increase in the absorption at 481 nm” value (PI/PC 0.15 mg/ml, PI:PC 3:1, HSL 20 μg, NAG 0.05 mg/ml) was 2108 ± 256 arb. units, the “Increase in the absorption at 481 nm” value (PI/PC 0.3 mg/ml, PI:PC 1:1, HSL 20 μg, NAG 0.05 mg/ml) was 335 ± 47 arb. units and the “Increase in the absorption at 481 nm” value (PI/PC 0.3 mg/ml, PI:PC 1:3, HSL 20 μg, NAG 0.05 mg/ml) was 427 ± 56 arb. units. The “Increase in the absorption at 481 nm” value (PI/PC 0.3 mg/ml, PI:PC 3:1, HSL 20 μg, NAG 0.05 mg/ml) was 913 ± 102 arb. units and the “Extinction change at 480 nm” value (standard conditions, 20 μg of partially purified HSL) was 4000 arb. units.
